Assay results from patent US5925618A, “Peptides useful as somatostatin antagonists” (American Cyanamid Company, priority 1998, dated 1999).
Square brackets hold non-standard residues; d marks the D form. Peptide text beside a SMILES is read from it.

Experiments:
rat SSTR2 = target: T1, rat SSTR2 (Rattus norvegicus, UniProt P30680); experiment: cAMP accumulation in forskolin-stimulated GH4 C1/SSTR2 cells; format: cell-based
T1 construct: expressed in transfected cells; host or cells: GH4C1 rat pituitary tumor cells
T1 sequence (P30680 whole entry): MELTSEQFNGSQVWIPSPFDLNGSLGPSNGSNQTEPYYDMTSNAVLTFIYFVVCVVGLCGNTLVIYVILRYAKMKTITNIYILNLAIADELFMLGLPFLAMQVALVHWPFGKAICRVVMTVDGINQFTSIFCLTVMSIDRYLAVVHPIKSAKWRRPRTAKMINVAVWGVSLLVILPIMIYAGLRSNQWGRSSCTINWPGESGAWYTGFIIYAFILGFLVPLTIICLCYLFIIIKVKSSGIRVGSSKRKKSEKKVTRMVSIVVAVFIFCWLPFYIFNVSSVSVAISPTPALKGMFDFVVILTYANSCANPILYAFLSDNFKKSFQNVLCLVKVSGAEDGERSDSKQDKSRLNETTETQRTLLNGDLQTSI
Excerpt: A primary effect of SRIF upon mammalian cells is the reduction of cyclic adenosine 3',5'-monophosphate(cAMP) levels, via inhibition of adenylyl cyclase. This is the basis of a common assay for SRIF agonists and antagonists, whereby SRIF agonists reduce artificially stimulated cAMP levels, and SRIF antagonists reverse the effect of SRIF. The rat pituitary tumor cell line GH4 C1 predominantly expresses SSTR2, and responds to SRIF and to forskolin, a stimulator of adenylate cyclase (see C. M. Eppler, et al., J. Biol. Chem., 267, 15603-15612, 1992, incorporated herein by reference). A highly sensitive assay for SRIF agonists and antagonists results from additionally transfecting GH4 C1 cells with the cloned rat SSTR2, (see L. A. Price, et al., Molecular and Cellular Biology, 15, 6188-6195, 1995, incorporated herein by reference). This increases the response to SRIF and provides a greater dynamic range for the measurement of SRIF antagonist activity.
Stimulation of cells. GH4 C1 /SSTR2 cells, grown in DMEM with 10% bovine serum, are released from a tissue culture dish by incubation for several minutes at 37° C. with PBS containing 0.5 mM EDTA. Cells are washed in induction buffer (PBS containing 100 μM IBMX (an inhibitor of cAMP breakdown) and 2 mM CaCl2) at room temperature, and resuspended at 2×10^6 /mL in induction buffer. Into each well of a 96-well tray are added 50 μL of a 2× concentration of stimulants in induction buffer. These include (at final concentration) 1.25 μM forskolin, 100 nM SRIF or 10 nM of the SSTR2-selective agonist MK678 and test peptides at various concentrations. To initiate stimulation of the cells, 50 μL (100,000) cells are added to each well, mixed by shaking 10 seconds on a plate shaker and placed at 37° C. for 15 minutes. Stimulation is arrested and cells are lysed by adding 15 μL 0.33N HCl to each well and incubating the plate for 30 minutes at 37° C. Samples are neutralized by addition of 15 μL 0.25N NaOH/50 mM Hepes pH 7.4. Baseline cAMP levels are determined in samples with no added forskolin or SRIF, and each treatment is performed in triplicate.
cAMP assay. To measure accumulated cAMP in the samples, a radioimmunoassay is employed. The scintillation proximity assay (SPA, Amersham, Arlington Heights, Ill.) allows the rapid measurement of ^125 I cAMP bound to a specific antibody without separating bound radioligand from free radioligand. Each of the following reagents (50 μL) are added per well in a 96-well tray: supernatants from the cell stimulation; ^125 I cAMP; SPA beads conjugated to monkey anti-rabbit IgG antibodies; and rabbit anti-cAMP antibodies. For the standard curve, known amounts of cAMP (0.2-12.8 pmol) are added in place of cell supernatants. The 96-well tray is sealed, shaken at room temperature overnight and measured for bound radioligand in a MicroBeta liquid scintillation counter (Wallac, Gaithersburg, Md.). The standard curve is determined for each experiment by performing a nonlinear regression (exponential decay) analysis of cpm measured for the cAMP standards vs. their log concentrations, and test sample values are determined by using Prism software (Graphpad Software Inc., San Diego, Calif.) and are shown in Table II and FIG. 1. FIG. I illustrates the antagonist activity of Peptide 1.
The intrinsic activity of an SRIF antagonist is the percent reversal of the SSTR2, activation by SRIF or MK678, wherein 0% is defined by cAMP levels in samples treated with forskolin plus SRIF or MK678 and 100% is the cAMP level measured after treatment with forskolin alone. Therefore, increased intrinsic activity of a test compound indicates increased antagonist activity of said test compound.
FIG. […]
An inverse agonist is a compound that is not only a pure antagonist (i.e. lacking agonist activity), but also blocks the constitutive activity of an unoccupied receptor. One indication of inverse agonist activity is the ability of a SRIF antagonist to increase cAMP levels in the absence of added SRIF. […]

[1] = target: T2, S. cerevisiae (yeast) cells expressing SRIF receptors (Rattus norvegicus, UniProt P30680); experiment: Yeast bioassay for SRIF antagonist activity (LY364 cells growing in response to SRIF, zone of growth inhibition); format: cell-based; conditions: Sample type 4th iteration; 10 μL of 5 mg/mL on disk, SRIF 10 nM, read after 3 days
T2 construct: expressed in transfected cells; host or cells: S. cerevisiae strain LY364
T2 sequence (P30680 whole entry): as above
Excerpt: SRIF antagonist assay using S. cerevisiae (yeast) cells expressing SRIF receptors that grow in response to SRIF
Agar plates containing LY364 cells that are growing in the presence of added SRIF are the basis for a sensitive SRIF antagonist assay, whereby zones of growth inhibition result from the addition of SRIF antagonists to the surface of the agar plate (see L. A. Price, et al., Molecular and Cellular Biology, 15, 6188-6195, 1995, incorporated herein by reference).
In this assay, LY364 cells are grown overnight in 2 mL of synthetic complete(SC) medium (3.4 g/L YNB without amino acids and ammonium sulfate, 10 g/L ammonium sulfate and 1.4 g/L CSM-ura-trp) with glucose (2%) and without uracil and tryptophan. These cells are washed and cultured for 4 to 8 hours in 5 mL of SC medium with lactate (3%) and without uracil and tryptophan, and finally grown overnight in 5 mL of SC medium with galactose (2%) and without uracil and tryptophan. Molten (50° C.) SC agar medium with galactose (2%) and without uracil, tryptophan and histidine is adjusted to pH 6.8 with KOH, mixed with 2×10^4 cells/mL and SRIF (S-14, 10 nM) and poured into square (20×20 cm) petri dishes. Sterile filter disks are placed on the surface of the agar, and saturated with 10 μL of water or DMSO containing 5 mg/mL test peptides. After three days, the plates display a uniform cloudy background of LY264 cells growing in response to the added SRIF. […] This zone is quantified by measuring its diameter (mm), which varies according to the potency of the SRIF antagonist. Those peptides or mixtures of peptides displaying the largest zones of inhibition are further characterized.
Values are compared among samples in the same experiment, as the degree of yeast growth varies somewhat from assay to assay. For the first five sample types, in which progressively less complex mixtures of peptides are found, this assay is the primary determining factor in choosing which samples form the basis of subsequent syntheses.
Plates are read after 3 days. Samples shown in Table I in bold type are chosen for further synthesis. In Table I, all amino acids are D-amino acids and dashes represent undefined amino acid residues.

CC[C@@H](C)[C@@H](NC(=O)[C@@H](Cc1ccccc1)NC(=O)[C@@H](Cc1c[nH]cn1)NC(C)=O)C(=O)N[C@H](CCCNC(=N)N)C(=O)N[C@H](Cc1c[nH]c2ccccc12)C(=O)N[C@H](Cc1ccccc1)C(N)=O [Peptide 1, h-f-i-r-w-f] (Ac-[dH][dF][dI][dR][dW][dF]-NH2)
cAMP (rat SSTR2; Forskolin 1.25 μM + MK 678 10 nM, Peptide 1 1 μM): 1.14 pM per 4 × 10^4 cells | cAMP (rat SSTR2; Forskolin 1.25 μM + MK 678 10 nM, Peptide 1 10 μM): 2.69 pM per 4 × 10^4 cells | cAMP (rat SSTR2; Forskolin 1.25 μM + MK 678 10 nM, Peptide 1 50 μM): 3.32 pM per 4 × 10^4 cells | cAMP (rat SSTR2; Forskolin 1.25 μM, no MK 678, Peptide 1 1 μM): 2.57 pM per 4 × 10^4 cells | cAMP (rat SSTR2; Forskolin 1.25 μM, no MK 678, Peptide 1 10 μM): 3.05 pM per 4 × 10^4 cells | cAMP (rat SSTR2; Forskolin 1.25 μM, no MK 678, Peptide 1 50 μM): 3.33 pM per 4 × 10^4 cells | mode of antagonism from agonist dose response curves (rat SSTR2; S-14 or MK678 dose response with or without peptide 1): directly competing with the SRIF agonists | forskolin-stimulated cAMP levels in the absence of SRIF (inverse agonist activity) (rat SSTR2; no added SRIF): causes an increase in forskolin-stimulated cAMP levels even in the absence of SRIF | Inhibition Zone [1]: 18 mm
